Test systems include A498 renal; CCRF-CEM leukemia; DU-145 prostate; HCT-15 colon; K-562 leukemia; LOX IMVI melanoma; SF-295 CNS; SK-MEL-5 melanoma; SNB-19 CNS; UACC-257 melanoma.
Common to all, as to assay: NCI anticancer screen, dose series, 48 h

SMILES strings stand for the structures.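 Following 48 hours of exposure in 96-well plates, responses at five concentrations were used to interpolate endpoints linearly. GI50 marks 50% less growth. TGI marks complete inhibition of growth.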 A value given as a limit tells only on which side of the number the result lay.

Consider `CCCCOC(C)(C)/C=C/C(O)[C@](C)(O)[C@H]1[C@H](O)C[C@@]2(C)[C@@H]3CCc4c(cc(OC5OC(CO)C(O)C(O)C5O)c(O)c4C)C3(C)C(=O)C[C@]12C` (stereo not given in full), for which the TGI in the experiment on A498 renal, with CCRF-CEM leukemia, in the experiment with DU-145 prostate, in the experiment with HCT-15 colon, in the experiment with K-562 leukemia and in the experiment on LOX IMVI melanoma was more than 100 µM throughout. In addition, the TGI in the experiment on SF-295 CNS, in the experiment on SK-MEL-5 melanoma, in the experiment with SNB-19 CNS and in the experiment with UACC-257 melanoma was more than 100 µM in each case.
In the case of `O=C(O)[C@@H]1C[C@@H](O)CN1C(=O)OCc1ccccc1`, the TGI in the experiment with A498 renal, in the experiment with CCRF-CEM leukemia, with DU-145 prostate, in the experiment on HCT-15 colon, with K-562 leukemia and with LOX IMVI melanoma was more than 100 µM each time. Moreover, the TGI in the experiment with SF-295 CNS, in the experiment on SK-MEL-5 melanoma, in the experiment with SNB-19 CNS and with UACC-257 melanoma was more than 100 µM throughout.
Turning to `Nn1c(CCCCCCCCc2nnc(COc3c(O)ccc4ccccc34)n2N)nnc1COc1c(O)ccc2ccccc12`, the TGI in the experiment on A498 renal, with DU-145 prostate, in the experiment with HCT-15 colon, with K-562 leukemia, in the experiment on SF-295 CNS and in the experiment on SK-MEL-5 melanoma was more than 100 µM each time. For the same compound, the TGI with SNB-19 CNS and in the experiment with UACC-257 melanoma was more than 100 µM each time.
For the compound `COC(=O)c1ccccc1/C=C1/Cc2ccccc2C1=O`, the TGI was more than 100 µM with A498 renal; 98.5 µM with CCRF-CEM leukemia; more than 100 µM in the experiment on DU-145 prostate; 58.6 µM in the experiment with HCT-15 colon; more than 100 µM with K-562 leukemia; 39.9 µM with LOX IMVI melanoma. Further, the values for the TGI in the experiment with SF-295 CNS, in the experiment on SK-MEL-5 melanoma and in the experiment on UACC-257 melanoma were more than 100 µM, 62.8 µM and 68.1 µM, respectively.
Consider `CCOC(=O)c1[nH]cc(C)c1-c1ccn(-c2ccccc2)c1`, for which the TGI with A498 renal was more than 100 µM; in the experiment with CCRF-CEM leukemia, 79.3 µM; with DU-145 prostate, more than 100 µM; in the experiment on HCT-15 colon it was more than 100 µM; in the experiment on K-562 leukemia, 51 µM; with LOX IMVI melanoma, more than 100 µM. The TGI in the experiment with SF-295 CNS was more than 100 µM; with SK-MEL-5 melanoma it was 63.9 µM; in the experiment with UACC-257 melanoma, more than 100 µM.
In the case of `COc1ccc2c(c1)O/C(=C\c1cccc(OCC(=O)Nc3nc4c(s3)CCCC4)c1)C2=O`, the GI50 is more than 42.5 µM with A498 renal; 2.07 µM with CCRF-CEM leukemia; 5.01 µM in the experiment on DU-145 prostate; 18.1 µM in the experiment on HCT-15 colon; 4.08 µM in the experiment on K-562 leukemia; 1.16 µM in the experiment on LOX IMVI melanoma. The values for the GI50 in the experiment on SK-MEL-5 melanoma, with SNB-19 CNS and in the experiment on UACC-257 melanoma were more than 71.8 µM, 44.6 µM and more than 100 µM, respectively. The TGI was more than 100 µM with A498 renal; 7.79 µM in the experiment on CCRF-CEM leukemia; 19.7 µM with DU-145 prostate; more than 100 µM with HCT-15 colon; more than 78.3 µM in the experiment on K-562 leukemia; 3.32 µM with LOX IMVI melanoma. Moreover, the TGI in the experiment with SF-295 CNS is more than 43.2 µM; with SK-MEL-5 melanoma, more than 100 µM; in the experiment with SNB-19 CNS it was more than 100 µM; in the experiment with UACC-257 melanoma, more than 100 µM.
In the case of `COc1ccc(/C(=N/O)c2ccccc2-c2nc3ccccc3c(=O)n2-c2ccc(S(=O)(=O)Nc3ncccn3)cc2)cc1C`, the TGI in the experiment with A498 renal was more than 31.6 µM; in the experiment with CCRF-CEM leukemia, 25.5 µM; with DU-145 prostate, more than 31.6 µM; in the experiment on HCT-15 colon it was 28.6 µM; in the experiment with K-562 leukemia, 21.6 µM; with SF-295 CNS, 27.9 µM. Also, the TGI is 25.4 µM in the experiment on SK-MEL-5 melanoma, more than 31.6 µM in the experiment on SNB-19 CNS and 30.5 µM with UACC-257 melanoma.
Turning to `O=C1CCC(=Nc2ccc(Cl)cc2)N1C(=O)COc1ccc(OCC(=O)N2C(=O)CSC2=Nc2ccc(Cl)cc2)cc1`, the TGI in the experiment on A498 renal, in the experiment on DU-145 prostate, with HCT-15 colon, in the experiment with K-562 leukemia, with LOX IMVI melanoma and in the experiment with SF-295 CNS was more than 100 µM throughout. Besides, the TGI in the experiment on SK-MEL-5 melanoma, in the experiment on SNB-19 CNS and with UACC-257 melanoma was more than 100 µM each time.
Take `C=C(Cl)/C(=C\Cl)CCC(Br)C(C)C` (stereo not given): the TGI was more than 100 µM with A498 renal; more than 100 µM in the experiment with CCRF-CEM leukemia; more than 100 µM in the experiment on DU-145 prostate; more than 100 µM with K-562 leukemia; 31.4 µM in the experiment with LOX IMVI melanoma; more than 100 µM in the experiment with SF-295 CNS. Further, the TGI in the experiment with SK-MEL-5 melanoma, in the experiment with SNB-19 CNS and in the experiment with UACC-257 melanoma was more than 100 µM each time.
Regarding `C1CCSCCCCSCCCCSCCCCSC1`, the TGI with A498 renal, in the experiment with DU-145 prostate, with HCT-15 colon, in the experiment with K-562 leukemia, in the experiment with LOX IMVI melanoma and in the experiment on SF-295 CNS was more than 100 µM each time. Besides, the TGI in the experiment on SK-MEL-5 melanoma, in the experiment with SNB-19 CNS and with UACC-257 melanoma was more than 100 µM in each case.
`OC[C@@H](O)[C@H]1NC[C@@H](O)[C@H]1O`: the TGI in the experiment with A498 renal, with CCRF-CEM leukemia, in the experiment with DU-145 prostate, in the experiment on HCT-15 colon, in the experiment on SF-295 CNS and in the experiment with SK-MEL-5 melanoma was more than 100 µM each time. Further, the TGI with SNB-19 CNS and in the experiment with UACC-257 melanoma was more than 100 µM each time.
As to `Nc1c2ccccc2nc2c1ccc1ncccc12`, the TGI is 39 µM in the experiment with CCRF-CEM leukemia; more than 100 µM in the experiment on DU-145 prostate; more than 100 µM in the experiment with HCT-15 colon; 88.6 µM with K-562 leukemia; 53.5 µM with LOX IMVI melanoma; more than 100 µM in the experiment with SF-295 CNS. The TGI in the experiment on SK-MEL-5 melanoma, in the experiment with SNB-19 CNS and in the experiment with UACC-257 melanoma was more than 100 µM in each case.
For the compound `COc1ccc(Nc2nc3ccc(C(F)(F)F)cc3nc2C(=O)O)cc1OC`, the TGI with A498 renal is 86.6 µM; in the experiment on DU-145 prostate, more than 100 µM; in the experiment with HCT-15 colon, more than 100 µM; in the experiment on K-562 leukemia, more than 100 µM; in the experiment with LOX IMVI melanoma, more than 100 µM; in the experiment on SF-295 CNS it was 77.6 µM. The TGI in the experiment with SK-MEL-5 melanoma is 48.3 µM; with SNB-19 CNS it was more than 100 µM; with UACC-257 melanoma it was more than 100 µM.
Regarding `CC(=O)OC[C@]1(C(=O)C(O)c2ccoc2)[C@H](C)CC[C@@]23COC(=O)C2=CCC[C@@H]31` (stereo not given in full), the TGI in the experiment on A498 renal, in the experiment on CCRF-CEM leukemia, in the experiment with DU-145 prostate, in the experiment on HCT-15 colon, in the experiment with LOX IMVI melanoma and in the experiment on SF-295 CNS was more than 10 µM throughout. Further, the TGI with SK-MEL-5 melanoma, in the experiment with SNB-19 CNS and in the experiment on UACC-257 melanoma was more than 10 µM throughout.
Regarding `COc1cccc(-c2cc(=O)c3c(C)cc(C)nc3[nH]2)c1`, the TGI in the experiment with A498 renal was 10.8 µM; in the experiment on CCRF-CEM leukemia, 2.87 µM; with DU-145 prostate, more than 72.1 µM; in the experiment on HCT-15 colon, more than 45.5 µM; in the experiment on K-562 leukemia, 1.41 µM; with LOX IMVI melanoma it was more than 100 µM. Also, the TGI in the experiment with SF-295 CNS is more than 73.6 µM; in the experiment with SK-MEL-5 melanoma, 14.8 µM; with SNB-19 CNS it was more than 100 µM.
Take `CC1(C)C(c2ccccc2)=[N+]([O-])C(C)(C)N1O`: the TGI in the experiment on A498 renal, with CCRF-CEM leukemia, with DU-145 prostate, in the experiment with HCT-15 colon, in the experiment with LOX IMVI melanoma and in the experiment with SF-295 CNS was more than 10 µM throughout. Moreover, the TGI in the experiment on SK-MEL-5 melanoma, in the experiment on SNB-19 CNS and in the experiment on UACC-257 melanoma was more than 10 µM throughout.
As to `c1ccc2c(c1)[nH]c1nc3cc(-c4ccc5nc6c(nc5c4)[nH]c4ccccc46)ccc3nc12`, the TGI was more than 100 µM with A498 renal; more than 100 µM with CCRF-CEM leukemia; more than 100 µM with DU-145 prostate; more than 32.3 µM in the experiment with HCT-15 colon; more than 100 µM with LOX IMVI melanoma; more than 100 µM in the experiment with SF-295 CNS. The TGI in the experiment with SK-MEL-5 melanoma, in the experiment with SNB-19 CNS and with UACC-257 melanoma was more than 100 µM in each case.
Regarding `N#Cc1nc(-c2cc([N+](=O)[O-])cc([N+](=O)[O-])c2)oc1N`, the TGI in the experiment on CCRF-CEM leukemia, in the experiment with DU-145 prostate, in the experiment on HCT-15 colon, in the experiment with K-562 leukemia, in the experiment on LOX IMVI melanoma and in the experiment on SF-295 CNS was more than 10 µM throughout. Besides, the TGI with SK-MEL-5 melanoma, in the experiment on SNB-19 CNS and in the experiment with UACC-257 melanoma was more than 10 µM throughout.
`COC(=O)c1c(C)cccc1/C=C1/Cc2c(C)cccc2C1=O`: the TGI in the experiment with A498 renal, in the experiment with DU-145 prostate, in the experiment on HCT-15 colon, with LOX IMVI melanoma, with SF-295 CNS and with SK-MEL-5 melanoma was more than 100 µM each time. Moreover, the TGI with UACC-257 melanoma was more than 100 µM.
Turning to `CCCCN1CCN(c2ccc3nc(-c4ccc5nc(-c6ccc(C(F)(F)F)cc6)[nH]c5c4)[nH]c3c2)CC1`, the GI50 is 1.78 µM with A498 renal; 0.289 µM in the experiment with CCRF-CEM leukemia; 0.915 µM in the experiment on DU-145 prostate; 0.303 µM in the experiment with HCT-15 colon; 0.839 µM in the experiment on LOX IMVI melanoma; 1.48 µM in the experiment with SF-295 CNS. The GI50 is 1.6 µM in the experiment with SK-MEL-5 melanoma and 1.78 µM with UACC-257 melanoma. Further, the TGI with A498 renal was determined as 3.45 µM; in the experiment on CCRF-CEM leukemia, 0.945 µM; in the experiment with DU-145 prostate, 2.36 µM; with HCT-15 colon, 1.1 µM; with LOX IMVI melanoma, 2.27 µM; in the experiment with SF-295 CNS, 2.95 µM. Further, the TGI in the experiment with SK-MEL-5 melanoma was 3.09 µM; in the experiment on UACC-257 melanoma, 3.41 µM.

These data come from PubChem BioAssay (NCI).
